Key:
Assay in all cases: Test D pre-/postemergence controlled growth environment herbicide test
Assay type in all cases: in vivo
Conditions in all cases: scale 0 to 100
[1] = test system: Russian thistle (Salsola kali)
Summary of the method: (§1)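 Visual injury scored 0–100 (100 = complete control) against untreated controls, 14–21 d after treatment in a controlled growth environment. Compounds, formulated in non-phytotoxic solvent with surfactant, were applied preemergence to silt loam soil or postemergence to 1- to 4-leaf plants (2–18 cm) in peat-based medium.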

[2] = test system: barley, spring (spring barley, Hordeum vulgare)
Summary of the method: as §1

[3] = test system: blackgrass (Alopecurus myosuroides)
Summary of the method: as §1

[4] = test system: canarygrass (Phalaris minor)
Summary of the method: as §1

[5] = test system: deadnettle (henbit deadnettle, Lamium amplexicaule)
Summary of the method: as §1

[6] = test system: field violet (Viola arvensis)
Summary of the method: as §1

[7] = test system: galium (catchweed bedstraw, Galium aparine)
Summary of the method: as §1

kochia (Kochia scoparia) = test system: kochia (Kochia scoparia)
Summary of the method: as §1

[8] = test system: lambsquarters (Chenopodium album)
Summary of the method: as §1

[9] = test system: ryegrass, Italian (Italian ryegrass, Lolium multiflorum)
Summary of the method: as §1

[10] = test system: wheat, spring (spring wheat, Triticum aestivum)
Summary of the method: as §1

Structure (SMILES): Cc1cc(=O)n(-c2ccc(F)cc2)nc1Cc1ccnc(C(F)(F)F)c1 [Compound 1, 2-(4-fluorophenyl)-5-methyl-6-[[2-(trifluoromethyl)-4-pyridinyl]methyl]-3(2H)-pyridazinone]
- Plant response rating ([1]; Postemergence, 62 g ai/ha): 20
- Plant response rating ([1]; Postemergence, 250 g ai/ha): 50
- Plant response rating ([1]; Preemergence, 62 g ai/ha): 20
- Plant response rating ([1]; Preemergence, 125 g ai/ha): 100
- Plant response rating ([1]; Preemergence, 250 g ai/ha): 100
- Plant response rating ([1]; Preemergence, 500 g ai/ha): 100
- Plant response rating ([2]; Postemergence, 31 g ai/ha): 0
- Plant response rating ([2]; Postemergence, 62 g ai/ha): 0
- Plant response rating ([2]; Postemergence, 125 g ai/ha): 5
- Plant response rating ([2]; Postemergence, 250 g ai/ha): 10
- Plant response rating ([2]; Postemergence, 500 g ai/ha): 10
- Plant response rating ([2]; Preemergence, 31 g ai/ha): 0
- Plant response rating ([2]; Preemergence, 62 g ai/ha): 5
- Plant response rating ([2]; Preemergence, 125 g ai/ha): 5
- Plant response rating ([2]; Preemergence, 250 g ai/ha): 30
- Plant response rating ([2]; Preemergence, 500 g ai/ha): 70
- Plant response rating ([3]; Postemergence, 31 g ai/ha): 0
- Plant response rating ([3]; Postemergence, 62 g ai/ha): 10
- Plant response rating ([3]; Postemergence, 125 g ai/ha): 10
- Plant response rating ([3]; Postemergence, 250 g ai/ha): 20
- Plant response rating ([3]; Postemergence, 500 g ai/ha): 20
- Plant response rating ([3]; Preemergence, 31 g ai/ha): 0
- Plant response rating ([3]; Preemergence, 62 g ai/ha): 0
- Plant response rating ([3]; Preemergence, 125 g ai/ha): 20
- Plant response rating ([3]; Preemergence, 250 g ai/ha): 40
- Plant response rating ([3]; Preemergence, 500 g ai/ha): 75
- Plant response rating ([4]; Postemergence, 31 g ai/ha): 5
- Plant response rating ([4]; Postemergence, 62 g ai/ha): 10
- Plant response rating ([4]; Postemergence, 125 g ai/ha): 15
- Plant response rating ([4]; Postemergence, 250 g ai/ha): 20
- Plant response rating ([4]; Postemergence, 500 g ai/ha): 20
- Plant response rating ([4]; Preemergence, 31 g ai/ha): 0
- Plant response rating ([4]; Preemergence, 62 g ai/ha): 0
- Plant response rating ([4]; Preemergence, 125 g ai/ha): 5
- Plant response rating ([4]; Preemergence, 250 g ai/ha): 15
- Plant response rating ([4]; Preemergence, 500 g ai/ha): 30
- Plant response rating ([5]; Postemergence, 31 g ai/ha): 10
- Plant response rating ([5]; Postemergence, 62 g ai/ha): 25
- Plant response rating ([5]; Postemergence, 125 g ai/ha): 35
- Plant response rating ([5]; Postemergence, 250 g ai/ha): 50
- Plant response rating ([5]; Postemergence, 500 g ai/ha): 75
- Plant response rating ([5]; Preemergence, 31 g ai/ha): 20
- Plant response rating ([5]; Preemergence, 62 g ai/ha): 40
- Plant response rating ([5]; Preemergence, 125 g ai/ha): 100
- Plant response rating ([5]; Preemergence, 250 g ai/ha): 100
- Plant response rating ([5]; Preemergence, 500 g ai/ha): 100
- Plant response rating ([6]; Postemergence, 31 g ai/ha): 20
- Plant response rating ([6]; Postemergence, 62 g ai/ha): 50
- Plant response rating ([6]; Postemergence, 125 g ai/ha): 75
- Plant response rating ([6]; Postemergence, 250 g ai/ha): 80
- Plant response rating ([6]; Postemergence, 500 g ai/ha): 90
- Plant response rating ([6]; Preemergence, 31 g ai/ha): 60
- Plant response rating ([6]; Preemergence, 62 g ai/ha): 80
- Plant response rating ([6]; Preemergence, 125 g ai/ha): 90
- Plant response rating ([6]; Preemergence, 250 g ai/ha): 98
- Plant response rating ([6]; Preemergence, 500 g ai/ha): 100
- Plant response rating ([7]; Postemergence, 31 g ai/ha): 30
- Plant response rating ([7]; Postemergence, 62 g ai/ha): 30
- Plant response rating ([7]; Postemergence, 125 g ai/ha): 45
- Plant response rating ([7]; Postemergence, 250 g ai/ha): 70
- Plant response rating ([7]; Postemergence, 500 g ai/ha): 90
- Plant response rating ([7]; Preemergence, 31 g ai/ha): 0
- Plant response rating ([7]; Preemergence, 62 g ai/ha): 10
- Plant response rating ([7]; Preemergence, 250 g ai/ha): 70
- Plant response rating ([7]; Preemergence, 500 g ai/ha): 100
- Plant response rating (kochia (Kochia scoparia); Postemergence, 31 g ai/ha): 15
- Plant response rating (kochia (Kochia scoparia); Postemergence, 62 g ai/ha): 20
- Plant response rating (kochia (Kochia scoparia); Postemergence, 125 g ai/ha): 30
- Plant response rating (kochia (Kochia scoparia); Postemergence, 250 g ai/ha): 50
- Plant response rating (kochia (Kochia scoparia); Postemergence, 500 g ai/ha): 70
- Plant response rating (kochia (Kochia scoparia); Preemergence, 31 g ai/ha): 70
- Plant response rating (kochia (Kochia scoparia); Preemergence, 125 g ai/ha): 80
- Plant response rating (kochia (Kochia scoparia); Preemergence, 250 g ai/ha): 100
- Plant response rating (kochia (Kochia scoparia); Preemergence, 500 g ai/ha): 100
- Plant response rating ([8]; Postemergence, 31 g ai/ha): 20
- Plant response rating ([8]; Postemergence, 62 g ai/ha): 20
- Plant response rating ([8]; Postemergence, 125 g ai/ha): 40
- Plant response rating ([8]; Postemergence, 250 g ai/ha): 40
- Plant response rating ([8]; Postemergence, 500 g ai/ha): 45
- Plant response rating ([8]; Preemergence, 31 g ai/ha): 0
- Plant response rating ([8]; Preemergence, 62 g ai/ha): 0
- Plant response rating ([8]; Preemergence, 125 g ai/ha): 20
- Plant response rating ([8]; Preemergence, 250 g ai/ha): 90
- Plant response rating ([8]; Preemergence, 500 g ai/ha): 100
- Plant response rating ([9]; Postemergence, 31 g ai/ha): 0
- Plant response rating ([9]; Postemergence, 62 g ai/ha): 0
- Plant response rating ([9]; Postemergence, 125 g ai/ha): 5
- Plant response rating ([9]; Postemergence, 250 g ai/ha): 10
- Plant response rating ([9]; Postemergence, 500 g ai/ha): 10
- Plant response rating ([9]; Preemergence, 31 g ai/ha): 0
- Plant response rating ([9]; Preemergence, 62 g ai/ha): 0
- Plant response rating ([9]; Preemergence, 125 g ai/ha): 10
- Plant response rating ([9]; Preemergence, 250 g ai/ha): 20
- Plant response rating ([9]; Preemergence, 500 g ai/ha): 60
- Plant response rating ([10]; Postemergence, 31 g ai/ha): 0
- Plant response rating ([10]; Postemergence, 62 g ai/ha): 5
- Plant response rating ([10]; Postemergence, 125 g ai/ha): 5
- Plant response rating ([10]; Postemergence, 250 g ai/ha): 10
- Plant response rating ([10]; Postemergence, 500 g ai/ha): 10
- Plant response rating ([10]; Preemergence, 31 g ai/ha): 0
- Plant response rating ([10]; Preemergence, 62 g ai/ha): 0
- Plant response rating ([10]; Preemergence, 125 g ai/ha): 10
- Plant response rating ([10]; Preemergence, 250 g ai/ha): 15
- Plant response rating ([10]; Preemergence, 500 g ai/ha): 75

From patent publication US10202361B2, “Pyridazinones as herbicides” (E I DU PONT DE NEMOURS AND COMPANY, priority 2014, dated 2019)
